“And” between values parts separate entries of the source, which are not always exact repeats. Equal entries are not always repeated. Where two headings read alike, the source gives them in different places.
Key:
Torpedo nAChR [1] = target: T1, Torpedo nAChR (Tetronarce californica, UniProt P02710+P02712+P02714+P02718); assay: [125I]-SADU-3-72 competition binding assay
Torpedo nAChR [2] = target: T1, Torpedo nAChR; format: cell-based
Torpedo nAChR [3] = target: T1, Torpedo nAChR; assay: biochemical; format: binding; conditions: for reduction of agonist-enhanced [125I]SADU-3-72 photolabeling within αV8-20K: 130 μM bupropion (separate experiment) or TCP
[4] = system: α1β1εδ (adult mouse muscle-type) nAChRs; conditions: read-out: IC50, impaired channel opening; binding to the resting nAChR; HEK-293 cells; cited from earlier work
[5] = desensitized state (Carb), TCP 130 μM, native nAChR-rich membranes, n=1
[6] = resting state (+α-BgTx), tetracaine 130 μM, native nAChR-rich membranes, n=1

T1 sequence (P02710 25-461): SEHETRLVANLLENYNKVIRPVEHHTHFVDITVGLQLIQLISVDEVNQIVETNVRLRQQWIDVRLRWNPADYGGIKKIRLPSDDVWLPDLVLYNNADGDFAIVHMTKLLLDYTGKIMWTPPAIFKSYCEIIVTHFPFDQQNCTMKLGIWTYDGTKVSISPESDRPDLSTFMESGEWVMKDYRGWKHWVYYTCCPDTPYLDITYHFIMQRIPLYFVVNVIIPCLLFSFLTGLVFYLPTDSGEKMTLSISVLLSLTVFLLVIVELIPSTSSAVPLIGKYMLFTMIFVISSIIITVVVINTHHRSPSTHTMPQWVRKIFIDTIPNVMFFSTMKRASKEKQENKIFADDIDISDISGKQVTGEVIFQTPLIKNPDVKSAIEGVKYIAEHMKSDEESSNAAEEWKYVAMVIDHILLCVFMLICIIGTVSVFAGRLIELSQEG
T1 sequence (P02712 25-493): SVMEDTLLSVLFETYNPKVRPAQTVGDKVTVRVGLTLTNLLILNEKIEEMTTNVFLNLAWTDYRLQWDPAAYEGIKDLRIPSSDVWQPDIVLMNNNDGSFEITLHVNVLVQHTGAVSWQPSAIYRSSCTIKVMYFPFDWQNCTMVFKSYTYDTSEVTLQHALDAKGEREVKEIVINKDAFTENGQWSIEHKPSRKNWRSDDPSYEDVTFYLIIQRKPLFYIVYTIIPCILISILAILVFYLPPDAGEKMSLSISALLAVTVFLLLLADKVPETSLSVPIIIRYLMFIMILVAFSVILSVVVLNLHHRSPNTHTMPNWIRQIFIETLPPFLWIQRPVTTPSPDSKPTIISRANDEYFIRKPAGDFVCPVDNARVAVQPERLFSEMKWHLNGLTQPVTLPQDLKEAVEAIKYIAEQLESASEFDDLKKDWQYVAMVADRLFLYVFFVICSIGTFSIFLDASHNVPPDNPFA
T1 sequence (P02714 18-506): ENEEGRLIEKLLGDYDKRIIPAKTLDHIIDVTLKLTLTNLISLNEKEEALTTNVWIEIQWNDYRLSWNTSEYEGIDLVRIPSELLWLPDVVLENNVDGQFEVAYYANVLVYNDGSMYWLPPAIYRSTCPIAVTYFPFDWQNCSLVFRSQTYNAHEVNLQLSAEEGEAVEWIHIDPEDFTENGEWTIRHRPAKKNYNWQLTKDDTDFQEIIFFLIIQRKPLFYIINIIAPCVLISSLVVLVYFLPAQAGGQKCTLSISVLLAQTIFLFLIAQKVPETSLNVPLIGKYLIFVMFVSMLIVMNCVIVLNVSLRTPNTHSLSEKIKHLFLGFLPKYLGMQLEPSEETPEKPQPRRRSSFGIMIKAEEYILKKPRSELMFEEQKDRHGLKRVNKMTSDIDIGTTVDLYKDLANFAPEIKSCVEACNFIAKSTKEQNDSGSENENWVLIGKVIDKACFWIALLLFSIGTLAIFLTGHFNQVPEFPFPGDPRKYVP
T1 sequence (P02718 22-522): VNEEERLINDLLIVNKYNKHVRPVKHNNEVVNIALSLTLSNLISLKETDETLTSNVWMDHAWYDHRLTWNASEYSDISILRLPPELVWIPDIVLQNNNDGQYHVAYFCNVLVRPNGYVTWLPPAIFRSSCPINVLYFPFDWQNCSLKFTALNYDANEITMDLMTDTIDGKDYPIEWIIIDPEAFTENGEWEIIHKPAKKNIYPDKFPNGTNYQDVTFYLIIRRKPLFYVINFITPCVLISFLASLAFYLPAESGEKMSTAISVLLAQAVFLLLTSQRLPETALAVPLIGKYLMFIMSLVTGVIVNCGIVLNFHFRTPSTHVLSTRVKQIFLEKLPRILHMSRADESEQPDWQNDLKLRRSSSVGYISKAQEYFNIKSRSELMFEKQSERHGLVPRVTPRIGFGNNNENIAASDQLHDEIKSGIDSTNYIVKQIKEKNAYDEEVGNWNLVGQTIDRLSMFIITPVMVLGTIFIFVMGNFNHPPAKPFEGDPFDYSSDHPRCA

CC(NC(C)(C)C)C(=O)c1ccc(N=[N+]=[N-])c(I)c1 (racemic) [SADU-3-72, (±)-2-(N-tert-butylamino)-3′-[^125I]-iodo-4′-azidopropiophenone]
IC50 (Torpedo nAChR [1]; read-out: IC50, inhibition of [125I]SADU-3-72 binding, affinity-purified, lipid-reconstituted nAChR, absence of Carb (resting state)): 2300 ± 700 nM

CC(NC(C)(C)C)C(=O)c1cccc(Cl)c1 (racemic) [bupropion, (±)-2-(tert-butylamino)-1-(3-chlorophenyl) propan-1-one]
IC50 (Torpedo nAChR [1]; IC50, inhibition of [125I]SADU-3-72 binding, native nAChR-rich membranes, desensitized state (400 μM Carb)): 1200 nM and 1000 nM | fold higher affinity in the desensitized than in the resting state (Torpedo nAChR [1]; from inhibition of [125I]SADU-3-72 binding / photoincorporation): three-fold | IC50 (Torpedo nAChR [2]): 340 nM and 300 nM | Hill coefficient nH of inhibition of ACh-induced currents (Torpedo nAChR [2]; co-applied with 50 μM ACh, n=7 oocytes): 0.98 ± 0.14 | IC50 (Torpedo nAChR [3]; IC50, inhibition of δ subunit [125I]SADU-3-72 photolabeling, presence of Carb (desensitized state)): 2100 nM and 2000 nM | reduction of agonist-enhanced [125I]SADU-3-72 photolabeling within αV8-20K (Torpedo nAChR [3]; desensitized state (Carb)): 70% | IC50 [4]: 400 nM

CC(=O)OCC[N+](C)(C)C [ACh, Acetylcholine]
Hill coefficient nH, ACh dose-response curve (Torpedo nAChR [2]; n=1): 1.5

c1csc(C2(N3CCCCC3)CCCCC2)c1 [TCP, 1-(1-(2-Thienyl)cyclohexyl) piperidine (tenocyclidine)]
effect on [125I]SADU-3-72 labeling of δLeu265 (M2-9) (Torpedo nAChR [3]; desensitized state (400 μM Carb), 130 μM TCP, preparative photolabeling): eliminated | reduction of agonist-enhanced [125I]SADU-3-72 photolabeling within αV8-20K (Torpedo nAChR [3]; desensitized state (Carb)): not inhibited | effect on [125I]SADU-3-72 β subunit labeling (Torpedo nAChR [3]; [5]): unchanged | increase of [125I]SADU-3-72 photolabeling in α-subunit (Torpedo nAChR [3]; [5]): ~ 15% | effect on [125I]SADU-3-72 labeling in βV8-22/23K, γV8-24K and δV8-14K fragments (Torpedo nAChR [3]; desensitized state (Carb), TCP (140 μM in Figure 5 legend)): further inhibited labeling | inhibition at 130 µM (Torpedo nAChR [3]; read-out: inhibition of [125I]SADU-3-72 photolabeling in γ-subunit): ~35% | inhibition at 130 µM (Torpedo nAChR [3]; read-out: inhibition of [125I]SADU-3-72 photolabeling in δ-subunit): ~35%

CCCCNc1ccc(C(=O)OCCN(C)C)cc1 [tetracaine]
inhibition at 130 µM (Torpedo nAChR [3]; read-out: inhibition of [125I]SADU-3-72 labeling within αV8-20K fragment): 49% | inhibition at 130 µM (Torpedo nAChR [3]; read-out: inhibition of [125I]SADU-3-72 labeling within βV8-22/23K fragment): 76% | inhibition at 130 µM (Torpedo nAChR [3]; read-out: inhibition of [125I]SADU-3-72 labeling within γV8-24K fragment): 79% | inhibition at 130 µM (Torpedo nAChR [3]; read-out: inhibition of [125I]SADU-3-72 labeling within δV8-14K fragment): 88% | reduction of [125I]SADU-3-72 photolabeling in α-subunit (Torpedo nAChR [3]; [6]): < 5% | reduction of [125I]SADU-3-72 photolabeling in β-subunit (Torpedo nAChR [3]; [6]): 55% | reduction of [125I]SADU-3-72 photolabeling in γ-subunit (Torpedo nAChR [3]; [6]): 51% | reduction of [125I]SADU-3-72 photolabeling in δ-subunit (Torpedo nAChR [3]; [6]): 73% | inhibition of [125I]-SADU-3-72 photoincorporation within subunit fragments containing the M2 segments (Torpedo nAChR [3]; resting state, αV8-20, βV8-22, γV8-24 and δV8-14): 50–90%

— PMC3315157 (Biochemistry, 2012)
